In patent US20220323471A1 (priority 2019, published 2022):
“Also recorded” adds a separate entry of the source.

Columns and labels:
[1] = tested on: ZIKV strain MR766; assay: ZIKV-induced mortality in Ifnar1−/− mice; assay type: in vivo, mouse (C57BL/6 Ifnar1−/−)
[2] = tested on: Sendai Virus (SeV); assay: Sendai Virus infection and IFN-β production in CHME3 cells; assay type: cell-based; conditions: SeV MOI 1 and 10, DGP 1 μM, NH4Cl 20 mM
Experimental: The Flaviviridae family of viruses encode a glycoprotein that is necessary to achieve fusion at the endosomal/lysosomal membranes, the step that releases viral components into the cytoplasm. […] Instead, SeV fuses at the plasma membrane. To this end, IFN-β production and viral infection were measured in CHME3 cells infected with SeV at an MOI 1 and 10 in the presence of DGP (1 μM) or 20 mM NH4Cl.
To detect viral copies of ZIKV and Sendai Virus (SeV) by qRT-PCR, cells were seeded in 24-well plates, with or without DGP treatment, and infected with the virus at the indicated MOI for 48 h. After the incubation period, total RNA from HT1080, VERO, and CHME3 cells was isolated and purified using Trizol (Invitrogen). For detection of ZIKV viral load in brain and spleen, 3 mice were sacrificed at 6 days post-infection and total RNA was extracted from the brain and spleen. For cDNA synthesis, 1 ng of total RNA was reverse transcribed. The reaction mixture included 1 mM of deoxyribonucleotide phosphates (dNTPs), 2 nM of the specific reverse primer of ZIKV or SeV, 1× M-MULV buffer, 10 U M-MuLV RT (BioLabs), and 2 U of RNase Inhibitor. The reaction mixture was incubated for 1 hour at 42° C. followed by 20 min at 65° C. to inactivate the enzyme. For actin detection, Oligo-dT was used to reverse transcribe total RNA.
ZIKV RNA levels were measured using real-time PCR. HT1080 and VERO cells were challenged by ZIKV MR766 at an MOI of 1 in the presence of DGP. At 48 hours post-challenge, cells were lysed and total RNA was extracted using trizol. Total RNA was used to determine the levels of ZIKV RNA by real-time PCR using specific primers against ZIKA. qRT-PCR was carried out using SYBR green in a 20-μl final volume using a MASTERCYCLER proS machine. The primers used to detect ZIKV were: SEQ ID NO. 1: 5′-TT […]-3′-Forward (Genome Position 941-964) and SEQ ID NO. 2: 5′-[…]-3′-Reverse (Genome position 1123-1103) (AY632535.2). For the detection of SeV, the following primers were used: SEQ ID NO. 3: 5′-[…]-3′-Forward (Genome position 210-233) and SEQ ID NO. 4: 5′-[…]-3′-Reverse (Genome position 332-307) (M30202. Genome position 210-332) (Wagner, A. M. et al. 2003, “Detection of sendai virus and pneumonia virus of mice by use of fluorogenic nuclease reverse transcriptase polymerase chain reaction analysis.” Comp Med 53(2): 173-177). For the detection of IFN-β the following primers were used: SEQ ID NO. 5: Forward 5-[…]-3′ (Genome position 644-668) and SEQ ID Na 6: Reverse 5′-[…]-3′ (Genome position 718-697) (NM_002176.2) and for actin detection: SEQ ID NO. 7: 5′-[…]-′3-Forward and SEQ ID NO. 8: 5′-[…]′3-Reverse. ZIKA viral RNA levels were normalized to actin (upper panels). […]

[3] = tested on: endosomes and lysosomes of HT1080 cells; assay: Acridine Orange fluorescence, endosomal/lysosomal acidification; assay type: cell-based, human; conditions: 4 hours pre-incubation, DGP, diphyllin, 6DG 2, 1 or 0.1 μM, Bafilomycin 100 nM, NH4Cl 25 mM
Experimental: To determine whether DGP inhibited ZIKV infection by preventing the acidification of endosomes and lysosomes, Acridine Orange (AO) was used, a cell-permeable fluorescent dye marker that accumulates in low pH compartments such as endosomes and lysosomes.
HT1080 cells were pre-incubated for 4 hours with the Bafilomycin (FIG. 10A, 100 nM), NH4Cl (FIG. 10A, 25 mM), DGP (FIG. 10B: 2 μM, 1 μM, or 0.1 μM) diphyllin (FIG. 10C: 2 μM, 1 μM, or 0.1 μM), or 6DG (FIG. 10C: 2 μM, 1 μM, or 0.1 μM) to test whether DGP prevents endosomal/lysosomal acidification. After staining the cells with 1 μg/mL of AO, changes in fluorescence were measured using a Celesta flow cytometer on the PerCP-Cy5-5-A channel. A shift in the AO fluorescence is indicated with an arrow in FIGS. 10A-10D.
Acridine Orange (Invitrogen) staining was performed as described previously (Kanzawa, T. et al. 2004, “Role of autophagy in temozolomide-induced cytotoxicity for malignant glioma cells.” Cell Death Differ 11(4): 448-457). Cells were stained with 1 μg/mL AO in 10% FBS DMEM for 30 min at 37° C. and then collected by trypsinization. Changes in fluorescence were measured using a Celesta flow cytometer in the PerCP-Cy5-5-A channel.

[4] = tested on: JEV-RVP; assay type: cell-based, Japanese encephalitis virus; conditions: VERO cells; DGP 1 μM; NH4Cl 20 mM

## COc1cc2c(OC3OC(C)C(O)C(O)C3O)c3c(c(-c4ccc5c(c4)OCO5)c2cc1OC)C(=O)OC3 (stereo not shown) [DGP, 6-deoxyglucose-diphyllin]
[1]; 0.1 mg/kg and 0.2 mg/kg dose (FIG. 8A)
  percent survival: improved
[1]; 0.2 mg/kg and 1 mg/kg (FIGS. 8B and 8D)
  body weight of surviving mice: able to regain lost body weight
[1]; 1 mg/kg (FIG. 8C)
  survival: 100%
[1]; ZIKV + 0.1 mg/kg, footpad co-injection
  time at which group succumbed to viral infection: 10 days post-challenge
[1]; ZIKV + 0.2 mg/kg, compared with ZIKV group
  appearance of symptoms: delay in the appearance of symptoms
[1]; ZIKV + 0.2 mg/kg, footpad co-injection
  survival: some mice survived until day 14
[1]; ZIKV + 1 mg/kg
  disease symptoms: did not show any obvious disease symptoms
[1]; ZIKV + 1 mg/kg compared to PBS + 1 mg/kg of DGP
  body weight: lower body weights
[1]; ZIKV + 1 mg/kg, 15 post-challenge days, 6 mice/group
  mice surviving for the length of the experiment: all six mice
[2]
  IFN-β production in SeV-infected cells: did not inhibit; also recorded: increased induction
  SeV infection / viral replication: does not inhibit; also recorded: increased viral replication
[3]
  acidification of endosomes and lysosomes (AO fluorescence): decreased AO fluorescence
[4]
  JEV RVP infection: almost undetectable
